Measured values as given in PubChem BioAssay AID256 (DTP/NCI, 2004).
“And” between values parts separate entries of the source, which are not always exact repeats. Equal values may be shown once. Toxic doses and inconclusive results are not listed.

Test system: CD2F1 mice, L1210 leukemia ip, survival T/C
Experiment: NCI In Vivo Anticancer Drug Screen. Data for tumor model L1210 Leukemia (intraperitoneal) in CD2F1 (CDF1) mice
Conditions: endpoint: mean survival time, higher = longer survival
Summary of the method: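 Vehicle-treated tumor-bearing mice served as controls (C) for compound-treated mice (T). Reported figure is T divided by C.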

[1] = dose: 100.0 mg/kg/injection, schedule: Q01DX009 (ip), vehicle: saline with Tween-80
[2] = dose: 200.0 mg/kg/injection, schedule: Q01DX009 (ip), vehicle: saline with Tween-80
[3] = dose: 400.0 mg/kg/injection, schedule: Q01DX009 (ip), vehicle: saline with Tween-80
[4] = dose: 5.0 mg/kg/injection, schedule: Q01DX009 (ip), vehicle: saline with Tween-80
[5] = dose: 10.0 mg/kg/injection, schedule: Q01DX009 (ip), vehicle: saline with Tween-80
[6] = dose: 20.0 mg/kg/injection, schedule: Q01DX009 (ip), vehicle: saline with Tween-80

Compound: OC12CCCCC1(O)CCCC2 (centres undefined)
- T/C (dose: 100.0 mg/kg/injection, schedule: Q01DX001 (ip), vehicle: saline with Tween-80): 100 % of control
- T/C [1]: 102 % of control
- T/C (dose: 200.0 mg/kg/injection, schedule: Q01DX001 (ip), vehicle: saline with Tween-80): 97 % of control
- T/C [2]: 102 % of control
- T/C (dose: 400.0 mg/kg/injection, schedule: Q01DX001 (ip), vehicle: saline with Tween-80): 97 % of control
- T/C [3]: 102 % of control

Compound: Cc1c(C)c(Cl)c(C)c(C)c1Cl
- T/C [4]: 98 % of control
- T/C (dose: 5.0 mg/kg/injection, schedule: Q04DX003 (ip), vehicle: saline with Tween-80): 100 % of control
- T/C [5]: 104 % of control
- T/C (dose: 10.0 mg/kg/injection, schedule: Q04DX003 (ip), vehicle: saline with Tween-80): 100 % of control
- T/C [6]: 98 % of control
- T/C (dose: 20.0 mg/kg/injection, schedule: Q04DX003 (ip), vehicle: saline with Tween-80): 105 % of control

Compound: CC1NC(=O)OC1(C)C(C)(C)C (centres undefined)
- T/C [4]: 94 % of control
- T/C [5]: 104 % of control
- T/C [6]: 102 % of control

Compound: CCOCc1ccc(C(=O)O)cc1
- T/C [1]: 96 % of control
- T/C [2]: 101 % of control
- T/C [3]: 101 % of control

Compound: c1ccc(-c2nc(-c3nn[nH]n3)c3ccccc3n2)cc1
- T/C (dose: 100.0 mg/kg/injection, schedule: Q01DX001 (ip), vehicle: saline): 89 % of control
- T/C (dose: 200.0 mg/kg/injection, schedule: Q01DX001 (ip), vehicle: saline): 97 % of control

Compound: C=CC1(C)CCN=C(CCC(C(=O)OCC)C(=O)OCC)O1 (centres undefined)
- T/C (dose: 100.0 mg/kg/injection, schedule: Q01DX001 (ip), vehicle: saline sonified): 103 % of control
- T/C (dose: 200.0 mg/kg/injection, schedule: Q01DX001 (ip), vehicle: saline sonified): 97 % of control
- T/C (dose: 400.0 mg/kg/injection, schedule: Q01DX001 (ip), vehicle: saline sonified): 100 % of control

Compound: CCCCCCCCCCCCCCC/C(=C\c1ccc2ccccc2c1)[N+](=O)[O-]
- T/C (dose: 75.0 mg/kg/injection, schedule: Q01DX001 (ip), vehicle: other): 95 % of control
- T/C (dose: 150.0 mg/kg/injection, schedule: Q01DX001 (ip), vehicle: other): 89 % of control
- T/C (dose: 300.0 mg/kg/injection, schedule: Q01DX001 (ip), vehicle: other): 102 % of control

Compound: CCOC(=O)NC(NC(=O)OCC)C(Br)(Br)Br
- T/C (dose: 200.0 mg/kg/injection, schedule: Q01DX001 (ip), vehicle: Klucel (hydroxypropylcellulose) (HPC)): 103 % of control
- T/C (dose: 400.0 mg/kg/injection, schedule: Q01DX001 (ip), vehicle: Klucel (hydroxypropylcellulose) (HPC)): 95 % of control

Compound: CCC[As](=O)(O)CCC
- T/C (dose: 25.0 mg/kg/injection, schedule: Q01DX009 (ip), vehicle: saline): 103 % of control
- T/C (dose: 50.0 mg/kg/injection, schedule: Q01DX009 (ip), vehicle: saline): 108 % of control
- T/C (dose: 100.0 mg/kg/injection, schedule: Q01DX009 (ip), vehicle: saline): 98 % of control

Compound: [C-]#[O+].[C-]#[O+].[C-]#[O+].[C-]#[O+].[C-]#[O+].[C-]#[O+].[Cr]
- T/C (dose: 25.0 mg/kg/injection, schedule: Q01DX009 (ip), vehicle: saline with Tween-80): 103 % of control
- T/C (dose: 50.0 mg/kg/injection, schedule: Q01DX009 (ip), vehicle: saline with Tween-80): 97 % of control and 110 % of control
- T/C [1]: 112 % of control

Compound: Cc1ccnc(NS(=O)(=O)c2ccc(N=Nc3nc4[nH]c(N)nc(=S)c4[nH]3)cc2)n1
- T/C (dose: 0.2 mg/kg/injection, schedule: Q01DX009 (ip), vehicle: Klucel (hydroxypropylcellulose) (HPC)): 96 % of control
- T/C (dose: 0.4 mg/kg/injection, schedule: Q01DX009 (ip), vehicle: Klucel (hydroxypropylcellulose) (HPC)): 106 % of control
- T/C (dose: 0.8 mg/kg/injection, schedule: Q01DX009 (ip), vehicle: Klucel (hydroxypropylcellulose) (HPC)): 106 % of control
- T/C (dose: 1.56 mg/kg/injection, schedule: Q01DX009 (ip), vehicle: Klucel (hydroxypropylcellulose) (HPC)): 203 % of control
- T/C (dose: 1.6 mg/kg/injection, schedule: Q01DX009 (ip), vehicle: Klucel (hydroxypropylcellulose) (HPC)): 117 % of control
- T/C (dose: 3.13 mg/kg/injection, schedule: Q01DX009 (ip), vehicle: Klucel (hydroxypropylcellulose) (HPC)): 150 % of control
- T/C (dose: 6.25 mg/kg/injection, schedule: Q01DX009 (ip), vehicle: Klucel (hydroxypropylcellulose) (HPC)): 117 % of control

Compound: O=C1c2ccccc2C(=O)N1Cc1ccccc1
- T/C [1]: 105 % of control
- T/C [2]: 100 % of control
- T/C [3]: 103 % of control
